The record followed here is US8536225B2, “Therapeutic methods employing nitric oxide precursors” (Vanderbilt University, priority 1999, dated 2013).

Format in all cases: in vivo, Duroc swine
A short description of series [1]: Hemodynamic monitoring (mean arterial blood pressure) after IV citrulline in piglets. Particulars: citrulline 600 mg/kg IV. How it is done:
(§1) Intravenous citrulline has not been previously used in a clinical model. This Example assessed the safety of IV citrulline and its effect on serum arginine levels in piglets. A total of 9 Duroc swine, aged 5-21 days, with a target minimum weight of 4 kg were utilized. All piglets underwent anesthetic induction and tracheostomy. Central lines were placed in the femoral artery and femoral vein and hemodynamics monitored continuously. Citrulline (600 mg/kg IV) was administered to 5 piglets. Saline was given to control animals. Serum amino acids were drawn before and each hour after citrulline administration.

A short description of series [2]: Pharmacokinetics of plasma citrulline and arginine after single dose of IV citrulline. As to conditions: piglets, single dose IV citrulline 600 mg/kg. How it is done:
as §1
Pharmacokinetics: Based on the above data, the pharmacokinetics were calculated for both plasma citrulline and arginie levels after the single dose of IV citrulline. Pharmacokinetic data included plasma half-life (t½), elimination constant (Kel), volume of distribution (Vd), and plasma clearance (CLp).

Series [3] is described as follows: Serum arginine levels after intravenous citrulline in piglets. Particulars: citrulline 600 mg/kg IV. The method, then:
as §1

As for `NC(=O)NCCC[C@H](N)C(=O)O` [Citrulline, citrulline], the “Mean Arterial Blood Pressures Following IV Citrulline, 1 hour post” value in series [1] (1 hour post) was determined as 67.4 mmHg. For the same compound, the “Mean Arterial Blood Pressures Following IV Citrulline, 2 hours post” value in series [1] (2 hours post) amounted to 64.8 mmHg. The “Mean Arterial Blood Pressures Following IV Citrulline, 3 hours post” value in series [1] (3 hours post) turned out to be 62.2 mmHg. Also, the Hemodynamic instability entry in series [1] (hemodynamics monitored continuously) is given as “No hemodynamic instability was observed”. Further, the “Mean Arterial Blood Pressures Following IV Citrulline, Pre-dose” value in series [1] (pre-dose) is recorded as 67.0 mmHg. In series [2] (Duroc, pig, plasma, read-out: Plasma citrulline half-life (t½) (converted)), the half-life is 1.5 h. For the same compound, in series [2] (Duroc, pig, plasma, read-out: Plasma citrulline plasma clearance (CLp) (converted)), the clearance is 17.5 mL/min. Besides, in series [2] (Duroc, pig, plasma, read-out: Plasma citrulline volume of distribution (Vd)), the Vd is 2.25 L. Also, in series [2], the “Plasma citrulline elimination constant (Kel)” value is 0.462 h⁻¹. The “Time of peak serum arginine levels following IV citrulline administration” value in series [3] fell in the range of 1 to 2 h. Further, in series [3] (1 hour post, serum), the “Arginine Levels Following IV Citrulline, 1 hour post” value turned out to be 535.0 µmol/L. For the same compound, the “Arginine Levels Following IV Citrulline, 2 hours post” value in series [3] (2 hours post, serum) turned out to be 559.8 µmol/L. Also, the “Arginine Levels Following IV Citrulline, 3 hours post” value in series [3] (3 hours post, serum) turned out to be 498.4 µmol/L. In addition, in series [3] (baseline (before administration), serum), the “Arginine Levels Following IV Citrulline, Baseline” value is 131.5 µmol/L.
